Laboratory results from ChEMBL document CHEMBL1201862, “PubChem BioAssay data set” (2004).
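A five-concentration, 48-hour dose response in 96-well plates underlies each endpoint, interpolated linearly between surrounding concentrations. Here, GI50 denotes the concentration required for 50% inhibition of growth.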 Active and inactive are the calls of the source. Cut-off read from the data, not from the text of the source: active = GI50 up to about 1.1 µM and inactive = higher.

Legend:
Assay in all cases: growth of human tumour cells (NCI), 48 h
786-0 = test system: 786-0
A498 = test system: A498
A549 = test system: A549
ACHN = test system: ACHN
BT-549 = test system: BT-549
CAKI-1 = test system: CAKI-1
CCRF-CEM = test system: CCRF-CEM
COLO 205 = test system: COLO 205
DU-145 = test system: DU-145
EKVX = test system: EKVX
HCT-116 = test system: HCT-116
HCT-15 = test system: HCT-15
HL-60 = test system: HL-60
HOP-62 = test system: HOP-62
HOP-92 = test system: HOP-92
HT-29 = test system: HT-29
IGROV-1 = test system: IGROV-1
K562 = test system: K562
KM12 = test system: KM12
LOX IMVI = test system: LOX IMVI
M14 = test system: M14
MCF7 = test system: MCF7
MDA-MB-231 = test system: MDA-MB-231
MDA-MB-435 = test system: MDA-MB-435
MDA-N = test system: MDA-N
MOLT-4 = test system: MOLT-4
NCI-H226 = test system: NCI-H226
NCI-H23 = test system: NCI-H23
NCI/ADR-RES = test system: NCI/ADR-RES
OVCAR-3 = test system: OVCAR-3
OVCAR-4 = test system: OVCAR-4
OVCAR-5 = test system: OVCAR-5
OVCAR-8 = test system: OVCAR-8
PC-3 = test system: PC-3
RPMI-8226 = test system: RPMI-8226
RXF 393 = test system: RXF 393
SF-295 = test system: SF-295
SF-539 = test system: SF-539
SK-MEL-28 = test system: SK-MEL-28
SK-MEL-2 = test system: SK-MEL-2
SK-MEL-5 = test system: SK-MEL-5
SK-OV-3 = test system: SK-OV-3
SN12C = test system: SN12C
SNB-19 = test system: SNB-19
SNB-75 = test system: SNB-75
SR = test system: SR
SW-620 = test system: SW-620
T47D = test system: T47D
TK-10 = test system: TK-10
U-251 = test system: U-251
UACC-257 = test system: UACC-257
UO-31 = test system: UO-31
HCC 2998 = test system: HCC 2998
Malme-3M = test system: Malme-3M
NCI-H460 = test system: NCI-H460
NCI-H522 = test system: NCI-H522
SF-268 = test system: SF-268
UACC-62 = test system: UACC-62
Hs-578T = test system: Hs-578T

O=C(Nc1nnc(-c2c(Cl)c(Cl)c(Cl)c(Cl)c2-c2nc3cc(C(=O)c4ccccc4)ccc3[nH]2)o1)c1ccccc1 was tested, and the GI50 (786-0) was 16.8 µM (inactive), the GI50 (A498) was 18.2 µM (inactive) and the GI50 (A549) was 14.9 µM (inactive). For the same compound, the GI50 (ACHN) was 19.5 µM (inactive), the GI50 (BT-549) was 23.5 µM (inactive) and the GI50 (CAKI-1) was 32.3 µM (inactive). For the same compound, the GI50 (CCRF-CEM) was 8.36 µM (inactive), the GI50 (COLO 205) was 12.2 µM (inactive) and the GI50 (DU-145) was 17.5 µM (inactive). For the same compound, the GI50 (EKVX) was 17.9 µM (inactive), the GI50 (HCT-116) was 23.3 µM (inactive) and the GI50 (HCT-15) was 9.98 µM. For the same compound, the GI50 (HL-60) was 11.4 µM (inactive), the GI50 (HOP-62) was 10.4 µM (inactive) and the GI50 (HOP-92) was 15.5 µM (inactive). For the same compound, the GI50 (HT-29) was 23.8 µM (inactive), the GI50 (IGROV-1) was 13.6 µM (inactive) and the GI50 (K562) was 5.78 µM (inactive). For the same compound, the GI50 (KM12) was 23.2 µM (inactive), the GI50 (LOX IMVI) was 15.1 µM (inactive) and the GI50 (M14) was 15.4 µM (inactive). For the same compound, the GI50 (MCF7) was 10.9 µM (inactive), the GI50 (MDA-MB-231) was 17.7 µM (inactive) and the GI50 (MDA-MB-435) was 3.89 µM (inactive). The GI50 (MDA-N) was 3.19 µM (inactive), the GI50 (MOLT-4) was 13.7 µM (inactive) and the GI50 (NCI-H226) was 16.7 µM (inactive). The GI50 (NCI-H23) was 18.9 µM (inactive), the GI50 (NCI/ADR-RES) was 14 µM (inactive) and the GI50 (OVCAR-3) was 15 µM (inactive). For the same compound, the GI50 (OVCAR-4) was 21 µM (inactive), the GI50 (OVCAR-5) was 26.4 µM (inactive) and the GI50 (OVCAR-8) was 26.9 µM (inactive). For the same compound, the GI50 (PC-3) was 13 µM (inactive), the GI50 (RPMI-8226) was 12.4 µM (inactive) and the GI50 (RXF 393) was 12.3 µM (inactive). For the same compound, the GI50 (SF-295) was 9.46 µM (inactive), the GI50 (SF-539) was 11.5 µM (inactive) and the GI50 (SK-MEL-28) was 12.1 µM (inactive). The GI50 (SK-MEL-2) was 17.7 µM (inactive), the GI50 (SK-MEL-5) was 5.07 µM (inactive) and the GI50 (SK-OV-3) was 18.9 µM (inactive). The GI50 (SN12C) was 15.3 µM (inactive), the GI50 (SNB-19) was 15.2 µM (inactive) and the GI50 (SNB-75) was 15.1 µM (inactive). The GI50 (SR) was 4.9 µM (inactive), the GI50 (SW-620) was 19.9 µM (inactive) and the GI50 (T47D) was 16.4 µM (inactive). The GI50 (TK-10) was 21.8 µM (inactive), the GI50 (U-251) was 13.6 µM (inactive) and the GI50 (UACC-257) was 23.2 µM (inactive). The GI50 (UO-31) was 31.8 µM (inactive).
With O=C(O)C[C@@H]1[C@@H](O)[C@@H](O)CN2C(=O)c3ccccc3[C@H]12 the GI50 (786-0) was > 100 µM (inactive), the GI50 (A498) was > 100 µM (inactive) and the GI50 (A549) was > 100 µM (inactive). The GI50 (ACHN) was > 100 µM (inactive), the GI50 (BT-549) was > 100 µM (inactive) and the GI50 (CAKI-1) was > 100 µM (inactive). For the same compound, the GI50 (COLO 205) was > 100 µM (inactive), the GI50 (DU-145) was > 100 µM (inactive) and the GI50 (EKVX) was > 100 µM (inactive). The GI50 (HCC 2998) was > 100 µM (inactive), the GI50 (HCT-116) was > 100 µM (inactive) and the GI50 (HCT-15) was over 100 µM. For the same compound, the GI50 (HOP-62) was > 100 µM (inactive), the GI50 (HT-29) was > 100 µM (inactive) and the GI50 (IGROV-1) was > 100 µM (inactive). The GI50 (K562) was > 100 µM (inactive), the GI50 (KM12) was > 100 µM (inactive) and the GI50 (LOX IMVI) was > 100 µM (inactive). For the same compound, the GI50 (M14) was > 100 µM (inactive), the GI50 (MCF7) was > 100 µM (inactive) and the GI50 (MDA-MB-231) was > 100 µM (inactive). The GI50 (MDA-MB-435) was > 100 µM (inactive), the GI50 (MDA-N) was > 100 µM (inactive) and the GI50 (MOLT-4) was > 100 µM (inactive). For the same compound, the GI50 (Malme-3M) was > 100 µM (inactive), the GI50 (NCI-H226) was > 100 µM (inactive) and the GI50 (NCI-H23) was > 100 µM (inactive). For the same compound, the GI50 (NCI-H460) was > 100 µM (inactive), the GI50 (NCI-H522) was > 100 µM (inactive) and the GI50 (NCI/ADR-RES) was > 100 µM (inactive). The GI50 (OVCAR-4) was > 100 µM (inactive), the GI50 (OVCAR-5) was > 100 µM (inactive) and the GI50 (OVCAR-8) was > 100 µM (inactive). The GI50 (PC-3) was > 100 µM (inactive), the GI50 (RPMI-8226) was > 100 µM (inactive) and the GI50 (RXF 393) was > 100 µM (inactive). For the same compound, the GI50 (SF-268) was > 100 µM (inactive), the GI50 (SF-295) was > 100 µM (inactive) and the GI50 (SF-539) was > 100 µM (inactive). The GI50 (SK-MEL-28) was > 100 µM (inactive), the GI50 (SK-MEL-2) was > 100 µM (inactive) and the GI50 (SK-MEL-5) was > 100 µM (inactive). The GI50 (SK-OV-3) was > 100 µM (inactive), the GI50 (SN12C) was > 100 µM (inactive) and the GI50 (SNB-19) was > 100 µM (inactive). For the same compound, the GI50 (SNB-75) was > 100 µM (inactive), the GI50 (SR) was > 100 µM (inactive) and the GI50 (SW-620) was > 100 µM (inactive). For the same compound, the GI50 (T47D) was > 100 µM (inactive), the GI50 (TK-10) was > 100 µM (inactive) and the GI50 (U-251) was > 100 µM (inactive). For the same compound, the GI50 (UACC-257) was > 100 µM (inactive), the GI50 (UACC-62) was > 100 µM (inactive) and the GI50 (UO-31) was > 100 µM (inactive).
CNC(=S)N1CCN(C(C)=O)C1=S was tested, and the GI50 (786-0) was > 100 µM (inactive), the GI50 (A498) was 35.6 µM (inactive) and the GI50 (A549) was 38.8 µM (inactive). For the same compound, the GI50 (ACHN) was > 100 µM (inactive), the GI50 (BT-549) was 12.9 µM (inactive) and the GI50 (CAKI-1) was 50 µM (inactive). The GI50 (CCRF-CEM) was 46.5 µM (inactive), the GI50 (COLO 205) was 97.5 µM (inactive) and the GI50 (DU-145) was > 100 µM (inactive). For the same compound, the GI50 (EKVX) was 25.1 µM (inactive), the GI50 (HCC 2998) was 31.9 µM (inactive) and the GI50 (HCT-116) was > 100 µM (inactive). The GI50 (HCT-15) was 34.4 µM, the GI50 (HL-60) was 47.8 µM (inactive) and the GI50 (HOP-62) was 70.5 µM (inactive). The GI50 (HOP-92) was 82.2 µM (inactive), the GI50 (HT-29) was 67.8 µM (inactive) and the GI50 (Hs-578T) was 23.6 µM (inactive). For the same compound, the GI50 (IGROV-1) was 44.9 µM (inactive), the GI50 (K562) was 54.2 µM (inactive) and the GI50 (KM12) was 56.9 µM (inactive). The GI50 (LOX IMVI) was 76.7 µM (inactive), the GI50 (M14) was 42.4 µM (inactive) and the GI50 (MCF7) was 42 µM (inactive). For the same compound, the GI50 (MDA-MB-231) was 4.27 µM (inactive), the GI50 (MDA-MB-435) was 22.2 µM (inactive) and the GI50 (MDA-N) was 51.8 µM (inactive). For the same compound, the GI50 (MOLT-4) was 30.8 µM (inactive), the GI50 (Malme-3M) was 12.7 µM (inactive) and the GI50 (NCI-H226) was 22.4 µM (inactive). The GI50 (NCI-H23) was 27.7 µM (inactive), the GI50 (NCI-H460) was 87.9 µM (inactive) and the GI50 (NCI-H522) was 45.1 µM (inactive). The GI50 (NCI/ADR-RES) was 69.3 µM (inactive), the GI50 (OVCAR-3) was 35.4 µM (inactive) and the GI50 (OVCAR-4) was 6.56 µM (inactive). The GI50 (OVCAR-5) was > 100 µM (inactive), the GI50 (OVCAR-8) was 92.5 µM (inactive) and the GI50 (SF-268) was 54.8 µM (inactive). The GI50 (SF-295) was 25.4 µM (inactive), the GI50 (SF-539) was 20.4 µM (inactive) and the GI50 (SK-MEL-28) was 29.2 µM (inactive). For the same compound, the GI50 (SK-MEL-2) was 2.25 µM (inactive), the GI50 (SK-MEL-5) was 71.4 µM (inactive) and the GI50 (SK-OV-3) was 66.8 µM (inactive). For the same compound, the GI50 (SN12C) was 57.7 µM (inactive), the GI50 (SNB-75) was 26.5 µM (inactive) and the GI50 (SR) was 23.7 µM (inactive). For the same compound, the GI50 (SW-620) was 86.5 µM (inactive), the GI50 (T47D) was 19.5 µM (inactive) and the GI50 (TK-10) was > 100 µM (inactive). For the same compound, the GI50 (U-251) was 4.02 µM (inactive), the GI50 (UACC-257) was 70.6 µM (inactive) and the GI50 (UACC-62) was 43.7 µM (inactive). The GI50 (UO-31) was 50.7 µM (inactive).
